Columns and labels:
[1] = test system: MCF-7ADR; test: Radiosensitizing activity of MDM2 antagonistic compounds, MCF-7ADR cells; format: cell-based, human; details: MCF-7 ADR cells (mutant p53, high GST content)
Experimental: Biologic assay for radiosensitizing activity of MDM2 antagonistic compounds: Human tumor cell lines containing wild-type p53 and low levels of GST, such as MCF7 (breast carcinoma) or mutant p53 and a high GST content, such as MCF7 ADR (adriamycin-resistant breast carcinoma) are cultivated in RPMI medium, supplemented with 10% fetal calf serum to a semi-confluent state.
In order to determine the radiosensitizing activity of selected compounds on these cells a minimal toxic dose was determined as 2Gy with a ^137Cesium source at room temperature. Following irradiation of monolayer cells in exponential growth phase with 2 Gy, cells were incubated with various concentrations of the selected compounds for 2-6 h. Cells were trypsinized and seeded in appropriate dilutions into 6 well plates. Surviving cells were trypsinized after 12-13 days and cell number was determined by staining with trypane blue for living/dead cells. The protocol was established according to Khil et al., 1996, Int. J. Rad. Oncol. Biol. Phys. 34, 375-380.

[2] = molecular target: HT29 cytosolic GST (Homo sapiens, UniProt P09211); test: Spectrophotometric GST activity analysis; format: biochemical; details: inhibition of GST activity in HT29 cells
Experimental: GST catalyzes the conjugation of CDNB with glutathione and results in a CDNB-glutathione product with a strong molar absorption at 340 nm. The change of absorption is monitored for 5 min.
1 x 10^6 cells are collected and washed once with ice-cold phosphate-buffered saline at 1000 rpm for 10 min at 4°C. Cell pellets are resuspended in 200 µl ice-cold phosphate-buffered saline, and are sonicated for 2 min on ice. The sonicate is then centrifuged at 11750 g, 4°C for 15 min in an Eppendorf Centrifuge, and the supernatant is assayed for GST activity.

Chain of HT29 cytosolic GST (P09211 2-210): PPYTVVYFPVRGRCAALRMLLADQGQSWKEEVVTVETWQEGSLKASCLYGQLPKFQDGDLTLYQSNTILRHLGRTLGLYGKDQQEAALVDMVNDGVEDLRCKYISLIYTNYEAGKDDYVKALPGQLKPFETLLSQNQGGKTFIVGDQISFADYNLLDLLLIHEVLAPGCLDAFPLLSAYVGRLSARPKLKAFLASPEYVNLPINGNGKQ

Structure (SMILES)	radiosensitization [1]	IC-50 [2]
O=C(O)COc1ccc(C(=O)/C=C/c2ccc(Cl)c(Cl)c2)cc1 [LSM 83177, 3,4-dichloro-4'-(carboxymethoxy)chalcone]	leads to a radiosensitization in MCF-7 ADR cells	7,7 µg/ml
C=C(CC)C(=O)c1ccc(OCC(=O)O)c(Cl)c1Cl [ethacrynic acid, reference compound]	does not mediate any radiosensitization	–

From EP0947511A1, “Derivatives of phenoxy acetic acid and of phenoxymethyl tetrazole having antitumor activity” (F. HOFFMANN-LA ROCHE AG, priority 1998, dated 1999)
